In series [1] the test system is patients with uncomplicated acute bronchitis. As to conditions: cited from earlier work; for Adverse events: P=0.008; for median number of days with cough: oral, placebo 11 days, not statistically significant.
The nature of another series: clinical. As to conditions: both, human, in vivo, po, 800 mg.

Regarding `CC1(C)S[C@@H]2[C@H](NC(=O)[C@H](N)c3ccc(O)cc3)C(=O)N2[C@H]1C(=O)O` [amoxicillin], in series [1], the Adverse events is 12% and the “median number of days with cough” value is on record as 11 days.
With `CC(C)Cc1ccc(C(C)C(=O)O)cc1` (racemic) [Ibuprofen, (±)-2-(4-isobutylphenyl) propionic acid], in series [1], the Adverse events is reported as 5% and the “median number of days with cough” value was 9 days. Besides, in “clinical”, the concentration peaked (Cmax) at 54.6 µg/mL and the Tmax (in general, the time at which the peak concentration occurs) amounted to 1.35 ± 0.75 h. Besides, in the series “clinical” (AUC0^t), the AUC (in general, the area under the concentration-time curve, a measure of exposure) was 185 µg·h/mL. The area under the curve (AUC) in “clinical” (AUC0^∞) was 192 µg·h/mL.

(Values after patent US20240000734A1, “PHARMACEUTICAL COMPOSITION HAVING AN ANALGAESIC AND AN ANTIHISTAMINE FOR TREATING RESPIRATORY DISEASES” (LABORATORIOS SILANES S.A. DE C.V., priority 2020, published 2024).)
